Test: Emulsification of coconut oil and water with different emulsifiers (Example 2)
Type: physicochemical
Conditions: coconut oils solid and liquid (MCT); emulsifying agent tested
Description: Several experiments were run using several different emulsifiers and combinations of different coconut oils: solid and liquid (MCT). (Note: liquid MCT is coconut oil that has medium chain triglyceride).
The method used to produce the invention emulsifications, included first heating extra virgin organic coconut oil to between 120 to 220 degrees F. CO2 extracted cannabis oil is added. In a high speed blender (or similar machine) coconut water is added to the coconut fat (oil) to ensure emulsification. While blending, xanthan gum powder is added in an amount between 0.15% and 0.45% of the total volume of finished product. Percentages used herein are on a dry weight basis and are based on the total volume of the finished product. The blender is run at high speed for between 30 seconds and 2.

cyclodextrin
emulsification of the oil and water (result in words): good results
